In patent EP2241555A1, “New RAC1 inhibitors as potential pharmacological agents for heart failure treatment” (UNIVERSITA' DEGLI STUDI DI MILANO, priority 2009, dated 2010):
Like-named read-outs stand apart in the source and are kept apart here. Values belong to the compound of their own block, whether it stands above or below them.

Columns and labels:
HL-1 cells = test: Apoptosis of ischemic HL-1 cardiomyocytes (TUNEL assay, flow cytometer); type: cell-based, mouse; conditions: 100 µM; 8 h ischemia (glucose deficient medium + hydrogen peroxide); 8h Ischemia alone 701.6, 8h Control 100
Experimental: To establish a cardiomyocytes based apoptosis assay, which mimics the post-ischemic damage observed after myocardial infarction, we have utilized a cardiac muscle cell line, HL-1 cells, derived from the AT-1 mouse atrial cardiomyocyte tumor lineage. The HL-1 cells were incubated in glucose deficient medium in the presence of hydrogen peroxide and either in presence or absence of compounds of the invention Apoptosis rate of ischemic HL-1 cells was normalised to the apoptosis rate of the 8h control cells under non-ischemic conditions, thus incubated with normal concentration of glucose in the absence of hydrogen peroxide. Both non-ischemic and ischemic HL-1 cultures were harvested after 8 hours. […] The apoptotic rates were then evaluated by TUNEL assay, a method for detecting DNA strand breaks in apoptotic cells by flow cytometer The solvent of the compounds, i.e DMSO, has no influence on the apoptosis rate. […] Effect of newly synthesized compounds with Rac1 inhibitory activity on apoptosis rate in HL-1 cells normalized to control (TUNEL-assay) The data are representative of two experiments.

HepG2 cells = test: Resazurine cytotoxicity assay (metabolic activity), HepG2; type: cell-based, human; conditions: for toxic classification / MVC / EC50: HepG2, 24 h; for toxic classification: classification in words in the text; for MVC: maximal viability concentration; for Cytotoxicity-Classification: HepG2, 24 h exposure; for EC50: Homo sapiens
Experimental: (§1) For a pre-screening of the compounds they were first tested in human hepatocellular carcinoma cells (HepG2 cells)for 24 h and to gain further information about the cytotoxic potential more specific target tissues like the mouse cardiomyocytes HL-1 and primary rat cardiomyocytes were used additionally. […] The toxicity classification has been determined by using drugs currently utilized in clinic with known toxicity profile

[1] = PAMPA (Parallel Artificial Membrane Permeability Assay); type: in vitro ADME; conditions: start concentration 250 µM, diffusion period 16 h
Experimental: (§2) The permeation characteristics of the Rac1 inhibitors were determined first in the artificial system PAMPA (Parallel Artificial Membrane Permeability Assay) which uses a membrane covered with a lipid to simulate the lipid bilayer of various cell types, including intestinal epithelium and second in vitro across Caco2, a human colon carcinoma cell line seeded as monolayers onto polycarbonate membranes. The PAMPA is able to predict the ability of a compound to permeate by a passive transcellular transport through an artificial lipid layer assembled on a membrane and also allows a classification into low (flux <20%), medium (20%≤ flux ≤70%), and high (flux >70%) absorbing substances. The Caco2 assay provides a well-established in vitro model to predict the human intestinal absorption.
The flux rate of the compounds of the invention and the reference NSC23766 was measured from a donor compartment to an acceptor compartment across the lipid layer at a start concentration of 250 µM over a diffusion period of 16 h.

[2] = Caco2 monolayer permeation; type: in vitro ADME, human; conditions: human, Caco-2, Caco2 monolayers, start concentration 50 µM
Experimental: as §2

Caco2 = Caco2 monolayer permeation; type: in vitro ADME, human; conditions: Caco2 monolayers, 90 min, start concentration 50 µM
Experimental: as §2

Rac1 = target: T1, Rac1 (Homo sapiens, UniProt P63000); test: G-LISA assay of intracellular Rac1-GTP in PDGF-BB stimulated human smooth muscle cells; type: cell-based; conditions: for remaining activity at 50 µM / remaining activity at 100 µM: read-out: Rac1 inhibitory activity (% vs control); for inhibitory action on Rac1 activity: G-LISA, 50 µM, statement in words; for remaining activity at 100 µM: Concentration 100 µm
T1 construct: endogenous in cells; host or cells: human cultured smooth muscle cells, stimulated with PDGF-BB
Description: The intracellular amount of Rac1-GTP has been determined using the GLISA™ assay (Cytoskeleton, Inc). The GLISA™ assay uses a 96-well plate coated with RBD domain of Rac1-family effector protein PAK1. […] A significant inhibition on Rac1 activity should decrease the intracellular levels of Rac1-GTP and therefore reduce the percentage of Rac1-GTP detected compared to control untreated cells.

HL-1 = test: Resazurine cytotoxicity assay (metabolic activity), HL-1; type: cell-based, mouse; conditions: for MVC / EC50: HL-1, 24 h; for MVC: maximal viability concentration; for Cytotoxicity-Classification: HL-1, 24 h exposure; for EC50: Mus musculus, metabolic activity
Experimental: as §1

[3] = tested on: primary rat cardiomyocytes; test: Resazurine cytotoxicity assay (metabolic activity), primary rat cardiomyocytes; type: cell-based; conditions: for MVC / EC50: 24 h; for MVC: maximal viability concentration; for Cytotoxicity-Classification: 24 h exposure; for EC50: Cardiomyocyte, metabolic activity
Experimental: as §1

[4] = tissue homogenate, 60 min, 10 µM
Experimental: The basic incubation mixture with total volume of 500 µl consisted of the following components. 100 µl liver homogenate, compound in DMSO (dimethyl sulfoxide) and 1 mM NADPH (reduced nicotinamide adenine dinucleotide phosphate), 1 mM UDPGA (uridine 5'-diphosphoglucuronic acid), 1 mM PAPS (3'-phosphoadenosine-5'-phosphosulfate) and 1 mM GSH (glutathione). The substrate concentration used was 10 µM. Two parallel incubations, one with cofactors and one without, were made. Final DMSO concentration in the incubation was 1 µM. […] Reaction was started by addition of a cofactor mixture and stopped by adding 250 µl of ice-cold acetonitrile.

[5] = Concentration 50 µm, 4 hours incubation, then PDGF-BB 10 ng/ml, Rac1-GTP detected relative to control (100), lower = more inhibition
[6] = metabolic activity, read-out: EC50
[7] = 4 hours incubation, then PDGF-BB 10 ng/ml, Rac1-GTP detected relative to control (100), lower = more inhibition

SMILES: CCN(CC)CCCC(C)Nc1nc(C)cc(Nc2ccc3nc(C)cc(N)c3c2)n1 (racemic) [NSC23766, reference compound]
Relative rate of apoptosis normalised to control [%] (HL-1 cells): 546.5% | toxic classification (HepG2 cells): not toxic (not toxic (EC50 > 500 µM)) | MVC (HepG2 cells): 31.2 µM | Cytotoxicity-Classification (HepG2 cells): no (EC50 > 500 µM, (no)) | EC50 (HepG2 cells): > 500 µM | PAMPA classification [1]: low (low (flux <20%)) | PAMPA flux [%] ± SD [1]: 11±4% | Papp at 90 min, 50 µM [2]: 2.4 ± 4.2 ×10⁻⁶ cm/s | Caco2 Classification (Caco2): medium (compounds with Papp between 1 and 10 are moderately absorbed (20 - 70%))

SMILES: CCN(CC)CCCC(C)Nc1nc(C)cc(Oc2ccc3nc(C)ccc3c2)n1 (stereo not drawn) [CWB001/01018, N1,N1-Diethyl-N4-[4-methyl-6-(2-methyl-quinolin-6-yloxy)-pyrimidin-2-yl]-pentane-1,4-diamine]
remaining activity at 50 µM (Rac1; [5]): 102%

SMILES: CCN(CC)CCCC(C)Nc1nc(C)cc(NCCc2c[nH]c3ccccc23)n1 (stereo not drawn) [CWB002/02038, N2-(4-Diethylamino-1-methyl-butyl)-N4-[2-(1H-indol-3-yl)-ethyl)-6-methylpyrimidine-2,4-diamine]
remaining activity at 50 µM (Rac1; [5]): 109%

SMILES: CCN(CC)CCCC(C)Nc1nc(C)cc(Nc2ccc3ncccc3c2)n1 (stereo not drawn) [CWB003/01020, N2-(4-Diethylamino-1-methyl-butyl)-6-methyl-N4-quinolin-6-yl-pyrimidine-2,4-diamine]
remaining activity at 50 µM (Rac1; [5]): 93.8%

SMILES: CCN(CC)CCCC(C)Nc1nc(C)cc(Nc2ccc3nc(C)cc(O)c3c2)n1 (stereo not drawn) [CWB005/02039, 6-[2-(4-Diethylamino-1-methyl-butylamino)-6-methyl-pyrimidin-4-ylamino]-2-methyl-quinolin-4-ol]
remaining activity at 50 µM (Rac1; [5]): 106%

SMILES: Cc1cc(Nc2ccc3nc(C)cc(O)c3c2)nc(NCCc2c[nH]c3ccccc23)n1 [CWB006/02035, 6-{2-[2-(1H-Indol-3-yl)-ethylamino]-6-methyl-pyrimidin-4-ylamino}-2-methyl-quinolin-4-ol]
remaining activity at 50 µM (Rac1; [5]): 91.5%

SMILES: CCN(CC)CCCC(C)Nc1nc(C)cc(N2CCOCC2)n1 (stereo not drawn) [CWB007/02040, N1,N1-Diethyl-N4-(4-methyl-6-morpholin-4-yl-pyrimidin-2-yl)-pentane-1,4-diamine]
remaining activity at 50 µM (Rac1; [5]): 101%

SMILES: COC(=O)C(CC(C)C)Nc1cc(C)nc(Nc2ccc3ncccc3c2)n1 (stereo not drawn) [CWB018/01034, 4-Methyl-2-[6-methyl-2-(quinolin-6-ylamino)-pyrimidin-4-ylamino]-pentanoic acid methyl ester]
remaining activity at 50 µM (Rac1; [5]): 34.2% | inhibitory action on Rac1 activity (Rac1): significant end efficient inhibitory action | toxic classification (HepG2 cells): low toxic (low toxic (100 µM < EC50 ≤ 500 µM)) | MVC (HepG2 cells): 62.5 µM | Cytotoxicity-Classification (HepG2 cells): + (100 µM < EC50 ≤ 500, low (+)) | EC50 (HepG2 cells; [6]): 162 µM | MVC (HL-1): 15.6 µM | Cytotoxicity-Classification (HL-1): ++ (10 µM < EC50 ≤ 100 µM, medium (++)) | EC50 (HL-1): 68 µM | MVC [3]: 31.2 µM | Cytotoxicity-Classification [3]: ++ (10 µM < EC50 ≤ 100 µM, medium (++)) | EC50 [3]: 85 µM | PAMPA classification [1]: high (high (flux >70%)) | PAMPA flux [%] ± SD [1]: 85±11% | Papp at 90 min, 50 µM [2]: 20.5 ± 1.9 ×10⁻⁶ cm/s | Caco2 Classification (Caco2): high (compounds with a Papp >10 are predicted to be well absorbed (70 - 100%))

SMILES: CCN(CC)CCCC(C)Nc1nccc(Oc2ccc3ccccc3c2)n1 (stereo not drawn) [CWB019/01037]
Remaining Rac1-GTP (% of control) (Rac1; [5]): 101.3%

SMILES: c1cc(NCc2ccc3[nH]ccc3c2)nc(NCc2ccc3[nH]ccc3c2)n1 [CWB020/01041, N2,N4-Bis-(1H-indol-5-ylmethyl)-pyrimidine-2,4-diamine]
remaining activity at 50 µM (Rac1; [5]): 17.1% | inhibitory action on Rac1 activity (Rac1): significant end efficient inhibitory action | MVC (HepG2 cells): 7.8 µM | Cytotoxicity-Classification (HepG2 cells): ++ (10 µM < EC50 ≤ 100 µM, medium (++)) | EC50 (HepG2 cells; [6]): 64 µM | MVC (HL-1): 15.6 µM | Cytotoxicity-Classification (HL-1): ++ (10 µM < EC50 ≤ 100 µM, medium (++)) | EC50 (HL-1): 39 µM | MVC [3]: 3.9 µM | Cytotoxicity-Classification [3]: ++ (10 µM < EC50 ≤ 100 µM, medium (++)) | EC50 [3]: 17 µM | PAMPA classification [1]: high (high (flux >70%)) | PAMPA flux [%] ± SD [1]: 54±4% | Papp at 90 min, 50 µM [2]: 65.9 ± 3.1 ×10⁻⁶ cm/s | Caco2 Classification (Caco2): high (compounds with a Papp >10 are predicted to be well absorbed (70 - 100%)) | remaining LC/MS peak area (relative to 0 min incubation samples, %) [4]: 33-41%

Next, values leading:

remaining activity at 50 µM (Rac1; [5]): 95.8%
SMILES: CCN(CC)CCCC(C)Nc1nc(C)cc(N2CCCCC2)n1 (stereo not drawn) [CWB008/02044, N1,N1-Diethyl-N4-(4-methyl-6-piperidin-1-yl-pyrimidin-2-yl)-pentane-1,4-diamine]

remaining activity at 50 µM (Rac1; [5]): 94.8%
SMILES: CCN(CC)CCCNc1nc(C)cc(Oc2ccc3nc(C)ccc3c2)n1 [CWB011/01023, N,N-Diethyl-N'-[4-methyl-6-(2-methyl-quinolin-6-yloxy)-pyrimidin-2-yl]-propane-1,3-diamine]

remaining activity at 50 µM (Rac1; [5]): 92.9%
SMILES: CCOC(=O)CNc1cc(C)nc(NC(C)CCCN(CC)CC)n1 (stereo not drawn) [CWB012/01025, [2-(4-Diethylamino-1-methyl-butylamino)-6-methyl-pyrimidin-4-ylamino]-acetic acid ethyl ester]

remaining activity at 50 µM (Rac1; [5]): 83.9%
SMILES: CCN(CC)CCCC(C)Nc1nc(C)cc(NCC(=O)O)n1 (stereo not drawn) [CWB015/01031, [2-(4-Diethylamino-1-methyl-butylamino)-6-methyl-pyrimidin-4-ylamino]-acetic acid]

remaining activity at 50 µM (Rac1; [5]): 93.2%
SMILES: CCN(CC)CCCC(C)Nc1cc(C)nc(N2CCOCC2)n1 (stereo not drawn) [CWB016/02046, N1,N1-Diethyl-N4-(6-methyl-2-morpholin-4-yl-pyrimidin-4-yl)-pentane-1,4-diamine]

remaining activity at 100 µM (Rac1; [7]): 98%
SMILES: CCN(CC)CCCC(C)Nc1nccc(Nc2ccc3cc[nH]c3c2)n1 (stereo not drawn) [CWB023/02053, N2-(4-Diethylamino-1-methyl-butyl)-N4-(1H-indol-6-yl)-pyrimidine-2,4-diamine]

remaining activity at 100 µM (Rac1; [7]): 123%
SMILES: CCN(CC)CCCC(C)Nc1nc(C)cc(NCCc2c[nH]c3ccc(O)cc23)n1 (stereo not drawn) [CWB025/02056, 3-{2-[2-(4-Diethylamino-1-methyl-butylamino)-6-methyl-pyrimidin-4-ylamino]-ethyl}-1H-indol-5-ol]

remaining activity at 100 µM (Rac1; [7]): 108%
SMILES: CCN(CC)CCCCNc1nc(C)cc(NCCc2c[nH]c3ccc(O)cc23)n1 [CWB026/02057, 3-{2-[2-(4-Diethylamino-butylamino)-6-methyl-pyrimidin-4-ylamino]-ethyl}-1H-indol-5-ol]

remaining activity at 100 µM (Rac1; [7]): 111%
SMILES: CCN(CC)CCCC(C)Nc1cc(C)nc(NCCc2c[nH]c3ccc(O)cc23)n1 (stereo not drawn) [CWB027/02058, 3-{2-[4-(4-diethylamino-1-methyl-butylamino)-6-methyl-pyrimidin-2-ylamino]-ethyl}-1H-indol-5-ol]
